pEC50: −log10 of the molar value.
Tests used:
Aβ = Aβ (Homo sapiens, UniProt P05067); assay: Aβ fibrillogenesis, Thioflavin-T; assay type: biochemical; details: for Aβ fibril inhibition (%): Aβ:inhibitor = 1:1 ratio at 100 μM Aβ concentration
AChE = AChE (Homo sapiens, UniProt P22303); assay: biochemical; details: read-out: AChE inhibition (%)
Aβ-peptide = Aβ-peptide (Homo sapiens, UniProt P05067); assay: High resolution mass spectrometry of inhibitor-Aβ complex formation; assay type: binding; details: Aβ-peptide-14 mixture (30 μM to 150 μM); 1:1 and 1:2 complexes observed
BuChE = BuChE (Homo sapiens, UniProt P06276); assay: Ellman assay, BuChE inhibition; assay type: biochemical; details: read-out: BuChE inhibition (%), tested at 10 μM concentration
Chain of BuChE (P06276 29-602): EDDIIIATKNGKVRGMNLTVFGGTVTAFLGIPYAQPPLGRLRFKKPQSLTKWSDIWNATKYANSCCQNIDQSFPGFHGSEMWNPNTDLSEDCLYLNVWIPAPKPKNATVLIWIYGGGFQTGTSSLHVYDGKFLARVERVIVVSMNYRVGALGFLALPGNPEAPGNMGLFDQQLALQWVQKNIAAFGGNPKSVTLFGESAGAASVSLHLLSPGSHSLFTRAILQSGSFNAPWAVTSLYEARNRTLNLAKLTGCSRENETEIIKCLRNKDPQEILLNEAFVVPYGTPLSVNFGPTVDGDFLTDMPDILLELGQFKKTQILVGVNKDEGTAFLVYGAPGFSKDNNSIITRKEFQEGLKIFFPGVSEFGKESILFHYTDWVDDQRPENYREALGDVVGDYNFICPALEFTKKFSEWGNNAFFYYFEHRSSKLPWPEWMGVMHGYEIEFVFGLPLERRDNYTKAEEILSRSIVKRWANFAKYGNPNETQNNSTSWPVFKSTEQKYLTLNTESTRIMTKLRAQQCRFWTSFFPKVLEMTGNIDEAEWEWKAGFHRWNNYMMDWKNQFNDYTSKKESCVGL

Chain of Aβ (P05067 672-711 limits assumed): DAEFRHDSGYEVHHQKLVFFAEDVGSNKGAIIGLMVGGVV
Chain of AChE (P22303 32-614): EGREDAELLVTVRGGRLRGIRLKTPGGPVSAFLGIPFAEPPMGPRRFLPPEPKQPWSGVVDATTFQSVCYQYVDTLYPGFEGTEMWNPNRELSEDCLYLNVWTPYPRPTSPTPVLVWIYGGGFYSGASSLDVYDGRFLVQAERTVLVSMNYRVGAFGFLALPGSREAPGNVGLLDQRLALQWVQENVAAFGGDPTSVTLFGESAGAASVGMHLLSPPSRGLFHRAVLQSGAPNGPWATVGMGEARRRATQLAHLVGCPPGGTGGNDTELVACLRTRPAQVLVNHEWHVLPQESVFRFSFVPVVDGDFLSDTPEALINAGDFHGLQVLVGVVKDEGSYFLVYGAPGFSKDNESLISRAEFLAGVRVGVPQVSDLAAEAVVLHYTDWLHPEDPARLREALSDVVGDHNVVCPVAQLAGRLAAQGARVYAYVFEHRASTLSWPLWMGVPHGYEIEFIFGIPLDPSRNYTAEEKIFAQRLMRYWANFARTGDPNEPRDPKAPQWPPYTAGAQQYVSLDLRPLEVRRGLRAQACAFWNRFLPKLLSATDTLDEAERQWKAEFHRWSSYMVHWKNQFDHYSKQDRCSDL
Chain of Aβ-peptide (P05067 672-711 limits assumed): as the sequence (P05067 672-711 limits assumed) above

Q: c1ccc2c(-c3nccc4c3[nH]c3ccccc34)cccc2c1 [Compound 14] was tested. Which pEC50 (Aβ) did it give?
A: Its pEC50 is roughly 3.96.

Q: What about the inhibition at 2 µM (AChE) of the same molecule?
A: Its inhibition at 2 µM is -11%.

Q: What about the “Complex formation with Aβ peptide (HR-MS)” value (Aβ-peptide) of the same molecule?
A: Its value is “forms a complex with the peptide”.

Q: What about the inhibition at 10 µM (BuChE) of the same molecule?
A: The inhibition at 10 µM was greater than 80%.

Q: For c1ccc2c(c1)[nH]c1c(C3CCCCC3)nccc12 [Compound 13], which “Aβ fibril inhibition (%)” value (Aβ) is on record?
A: The value was −12%.

Q: For c1ccc(-c2nccc3c2[nH]c2ccccc23)cc1 [Compound 1], which inhibition at 2 µM (AChE) is on record?
A: The inhibition at 2 µM was -12%.

Q: How did the inhibition at 2 µM (AChE) turn out when COc1ccc2[nH]c3c(-c4ccc(C)cc4)nccc3c2c1 [Compound 4] was run?
A: Its inhibition at 2 µM is -15%.

Q: How did the “Aβ fibril inhibition (%)” value (Aβ) turn out when Fc1ccc(-c2nccc3c2[nH]c2ccccc23)cc1 [Compound 6] was run?
A: Its value is 39%.

Q: What about the inhibition at 10 µM (BuChE) of the same molecule?
A: The inhibition at 10 µM was greater than 80%.
